Residues, ends and D or L forms follow the SMILES beside them. *: point of attachment. Palmitoyl = CCCCCCCCCCCCCCCC(=O)*
Tests used:
[1] = Solubility and filterability of the lipopeptides; type: physicochemical
Description: Le lipopeptide n° 3 est soluble dans l'acide acétique à 80%. Il peut être stérilisable par filtration sur un microfiltre de 0,22 µm. Il peut être en outre dissous dans une solution DMSO/eau 10% V/V. La mesure de la masse par spectrométrie PDMS-TOF confirme la présence du produit attendu. Le produit s'avère purifiable après injection d'une solution concentrée dans le DMSO, sur colonne Vydac C4, à 60°C, en utilisant un gradient d'acétonitrile, en présence du contre-ion TFA. Le produit est caractérisable par HPLC selon plusieurs méthodes résolutives conventionnelles, sur colonnes Vydac C4, Zorbax C3, Zorbax CN, Zorbax C1, à 60°C, à l'aide de gradients d'acétonitrile en présence d'un contre-ion TFA, ou en utilisant un modificateur organique, tel que l'isopropanol ou le butanol en isocratique.
Le trifluoroacétate du lipopeptide n°3 est soluble dans le DMSO (20-25 mg/mL), et reste soluble après dilution par de l'eau (DMSO 10%). L'échange du contre-ion trifluoroacétate pour un contre-ion acétate peut être réalisé par RP-HPLC sur une colonne C4: le produit dissous dans le DMSO à 80% est injecté sur la colonne équilibrée par le solvant A (acide acétique à 5% dans l'eau). Après élimination des produits non retenus (contre-ions TFA, sels), le produit est élué par l'aide d'un gradient du solvant A vers le solvant B (acétonitrile 80% - acide acétique à 5% - eau 15%). […]

[2] = test system: CTL spécifiques dans les PBMC de patients séropositifs pour HIV; assay: ELISPOT IFN-γ test on human PBMC of HIV-seropositive donors (antigenicity); type: cell-based, homme; conditions: PBMC of patient HLA-B7 Z118; figure 6c
Description: Des donneurs séropositifs pour HIV ont été sélectionnés pour leur expression en molecules HLA de classe I selon des données bien connues de l'homme du métier en matière de restriction vis-à-vis des peptides et lipopeptides.
Des microplaques de nitrocellulose (Millipore, Bedford, MA) ont été incubées pendant la nuit à 4°C avec 1 µg/ml d'un anticorps de capture anti-Interféron-γ humain dilué dans un tampon carbonate/bicarbonate à pH 9,6 (100 µl/puits). Après cinq lavages, les plaques ont été saturées pendant 2 heures à 37°C avec 200 µl puis lavées. Pour les cultures de cellules humaines, le milieu complet était composé de RPMI 1640, 10% de sérum albumine bovine, 2mM glutamine, d'antibiotiques et de β2-mercaptoéthanol (5 x 10^-5M). Pour le test avec le peptide, des PBMC de patients ont été ajoutés directement dans les microplaques de nitrocellulose (2 x 10^5 cellules/puits) et incubés pendant 24 heures à 37°C en présence de […] du peptide. Pour le test des lipopeptides, les PBMC ont été incubés pendant la nuit à 37 °C avec les lipopeptides, puis ont été lavés et irradiés (3000 rads). Ces cellules ont été utilisées comme cellules stimulatrices dans une co-culture (2 x 10^5 cellules par puits) avec des PBMC syngéniques ( rapport 1/1) dans des plaques de nitrocellulose pendant 24 heures à 37°C. […]

In the case of CCCCCCCCCCCCCCCC(=O)NCCCC[C@H](NC(=O)CCCCCCCCCCCCCCC)C(=O)N[C@@H](CO)C(=O)N[C@@H](CO)C(=O)N[C@@H](CCC(N)=O)C(=O)N[C@@H](Cc1ccc(O)cc1)C(=O)N[C@H](C(=O)N[C@@H](CCCCN)C(=O)N[C@@H](C)C(=O)N[C@@H](CC(N)=O)C(=O)N[C@@H](CO)C(=O)N[C@@H](CCCCN)C(=O)N[C@@H](Cc1ccccc1)C(=O)N[C@H](C(=O)NCC(=O)N[C@H](C(=O)N[C@H](C(=O)N[C@@H](CCC(=O)O)C(=O)N[C@@H](C)C(=O)N[C@@H](C)C(=O)N[C@@H](C)C(=O)N[C@@H](C)C(=O)N[C@@H](C)C(=O)NCC(=O)N[C@H](C(=O)NCC(=O)N[C@H](C(=O)N[C@@H](CC(C)C)C(=O)N[C@H](C(=O)N[C@H](C(=O)O)C(C)C)[C@@H](C)O)[C@@H](C)CC)[C@@H](C)CC)[C@@H](C)O)[C@@H](C)CC)[C@@H](C)CC)[C@@H](C)CC [lipopeptide n° 1] (Palmitoyl-K(Palmitoyl)SSQYIKANSKFIGITEAAAAAGIGILTV-OH), the “solubilité dans un mélange DMSO/eau 10% V/V” value [1] is reported as “pratiquement insoluble”, the “solubilité dans l'eau” value ([1]; water) is reported as “pratiquement insoluble” and the “solubilité dans l'eau après lyophilisation” value ([1]; water, after lyophilisation) is reported as “totalement insoluble”.

In the case of “NEF 68-76: épitope potentiel de HLA-B7 (FPVTPQVPL; UniProt P04601 68-76, looked up, fragment)”, the “antigénicité (ELISPOT Interféron-γ)” value [2] is reported as “induit efficacement une réponse CTL spécifique”.

In the case of CCCCCCCCCCCCCCCC(=O)NCCCC[C@H](N)C(=O)N[C@@H](CO)C(=O)N[C@@H](CO)C(=O)N[C@@H](CCC(N)=O)C(=O)N[C@@H](Cc1ccc(O)cc1)C(=O)N[C@H](C(=O)N[C@@H](CCCCN)C(=O)N[C@@H](C)C(=O)N[C@@H](CC(N)=O)C(=O)N[C@@H](CO)C(=O)N[C@@H](CCCCN)C(=O)N[C@@H](Cc1ccccc1)C(=O)N[C@H](C(=O)NCC(=O)N[C@H](C(=O)N[C@H](C(=O)N[C@@H](CCC(=O)O)C(=O)N[C@@H](CCCNC(=N)N)C(=O)NCC(=O)N[C@@H](CCCNC(=N)N)C(=O)N[C@@H](C)C(=O)N[C@@H](C)C(=O)NCC(=O)N[C@H](C(=O)NCC(=O)N[C@H](C(=O)N[C@@H](CC(C)C)C(=O)N[C@H](C(=O)N[C@H](C(=O)O)C(C)C)[C@@H](C)O)[C@@H](C)CC)[C@@H](C)CC)[C@@H](C)O)[C@@H](C)CC)[C@@H](C)CC)[C@@H](C)CC [lipopeptide n°4] (H-K(Palmitoyl)SSQYIKANSKFIGITERGRAAGIGILTV-OH), the “solubilité en milieu aqueux” value ([1]; aqueous medium) is reported as “n'est soluble en milieu aqueux qu'en présence de DMSO”.

In the case of CCCCCCCCCCCCCCCC(=O)NCCCC[C@H](NC(=O)CCCCCCCCCCCCCCC)C(=O)N[C@@H](CO)C(=O)N[C@@H](CO)C(=O)N[C@@H](CCC(N)=O)C(=O)N[C@@H](Cc1ccc(O)cc1)C(=O)N[C@H](C(=O)N[C@@H](CCCCN)C(=O)N[C@@H](C)C(=O)N[C@@H](CC(N)=O)C(=O)N[C@@H](CO)C(=O)N[C@@H](CCCCN)C(=O)N[C@@H](Cc1ccccc1)C(=O)N[C@H](C(=O)NCC(=O)N[C@H](C(=O)N[C@H](C(=O)N[C@@H](CCC(=O)O)C(=O)N[C@@H](CCCNC(=N)N)C(=O)NCC(=O)N[C@@H](CCCNC(=N)N)C(=O)N[C@@H](C)C(=O)N[C@@H](C)C(=O)NCC(=O)N[C@H](C(=O)NCC(=O)N[C@H](C(=O)N[C@@H](CC(C)C)C(=O)N[C@H](C(=O)N[C@H](C(=O)O)C(C)C)[C@@H](C)O)[C@@H](C)CC)[C@@H](C)CC)[C@@H](C)O)[C@@H](C)CC)[C@@H](C)CC)[C@@H](C)CC [lipopeptide n°2] (Palmitoyl-K(Palmitoyl)SSQYIKANSKFIGITERGRAAGIGILTV-OH), the “solubilité dans l'eau” value ([1]; water) is reported as “comportement voisin du lipopeptide n°1”.

For CCCCCCCCCCCCCCCC(=O)NCCCC[C@H](NC(=O)CCCCCCCCCCCCCCC)C(=O)NCC(=O)N[C@@H](CCCNC(=N)N)C(=O)N[C@@H](CCC(N)=O)C(=O)N[C@@H](Cc1ccc(O)cc1)C(=O)N[C@H](C(=O)N[C@@H](CCCCN)C(=O)N[C@@H](C)C(=O)N[C@@H](CC(N)=O)C(=O)N[C@@H](CO)C(=O)N[C@@H](CCCCN)C(=O)N[C@@H](Cc1ccccc1)C(=O)N[C@H](C(=O)NCC(=O)N[C@H](C(=O)N[C@H](C(=O)N[C@@H](CCC(=O)O)C(=O)N[C@@H](CCCNC(=N)N)C(=O)NCC(=O)N[C@@H](CCCNC(=N)N)C(=O)N[C@@H](C)C(=O)N[C@@H](C)C(=O)NCC(=O)N[C@H](C(=O)NCC(=O)N[C@H](C(=O)N[C@@H](CC(C)C)C(=O)N[C@H](C(=O)N[C@H](C(=O)O)C(C)C)[C@@H](C)O)[C@@H](C)CC)[C@@H](C)CC)[C@@H](C)O)[C@@H](C)CC)[C@@H](C)CC)[C@@H](C)CC [lipopeptide n° 3] (Palmitoyl-K(Palmitoyl)GRQYIKANSKFIGITERGRAAGIGILTV-OH), the “solubilité dans un mélange DMSO/eau 10% V/V” value [1] was “dissous”, the “solubilité dans l'acide acétique à 80%” value ([1]; acide acétique à 80%) was “soluble” and the solubilité ([1]; acétate salt, compared with the trifluoroacétate) was “comparable à celle du trifluoroacétate”. The stérilisation par filtration ([1]; microfiltre de 0,22 µm) was “stérilisable”, the “solubilité dans le DMSO” value ([1]; trifluoroacétate salt, DMSO) was 20 to 25 mg/mL and the “solubilité après dilution par de l'eau” value ([1]; trifluoroacétate salt, DMSO solution diluted with water (DMSO 10%)) was “reste soluble”.

Reference: patent publication EP1068226B1, “LIPOPEPTIDES INDUCING T LYMPHOCYTIC CYTOTOXICITY BEARING AT LEAST ONE AUXILIARY T EPITOPE, AND USES FOR VACCINATION” (INSTITUT NATIONAL DE LA SANTE ET DE LA RECHERCHE MEDICALE …, priority 1998, dated 1999)
